# Measured values taken from ChEMBL document CHEMBL1201862, “PubChem BioAssay data set” (2004).
# Active and inactive are the calls of the source.
# Tests used:
# [1] = target: Melanin-concentrating hormone receptor 1 (Homo sapiens, UniProt Q99705); assay: Fluorescence-based counterscreen for antagonists of the G-protein coupled receptor 7 (GPR7): cell-based high throughput dose response assay to identify antagonists of the melanin-concentrating hormone receptor 1 (MCHR1).; type: functional
# [2] = target: Neuropeptides B/W receptor type 1 (Homo sapiens, UniProt P48145); assay: Fluorescence-based dose response cell-based high throughput screening assay to identify antagonists of the G-protein coupled receptor 7 (GPR7). [Related pubchem assays: 1952 (Screening assay (GPR7 antagonists).), 1880 (Summary AID.)]; type: functional
# [3] = target: T1, Eukaryotic translation initiation factor 2-alpha kinase 3 (Homo sapiens, UniProt Q9NZJ5); assay: Dose response cell-based high-throughput screening assay to measure PERK inhibition. [Related pubchem assays: 1416 ]; type: functional
# [4] = target: T1, Eukaryotic translation initiation factor 2-alpha kinase 3; assay: Counterscreen assay for PERK inhibitors: Dose response cell-based high throughput screening assay to measure inhibition of PERK at 6 hours. [Related pubchem assays: 1522, 1416 ]; type: functional
# [5] = target: Protein-tyrosine kinase 2-beta (Homo sapiens, UniProt Q14289);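 further: potency of inhibitors of PYK2 kinase phosphorylation of poly-GT substrate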
# [6] = target: T2, Voltage-gated N-type calcium channel alpha-1B subunit/Amyloid beta A4 precursor protein-binding family A member 1 (Homo sapiens, UniProt Q00975+Q02410); type: protein assay
# [7] = target: Photoreceptor-specific nuclear receptor (Homo sapiens, UniProt Q9Y5X4); type: functional;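 further: potency for compounds that break the NR2E3 corepressor complex and count as activators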
# [8] = target: Genome polyprotein (Hepatitis C virus, UniProt Q2Q167); assay: disruption of hepatitis C core self-association – biochemical, TR-FRET, dose response (AID 2159); design: species or system Hepacivirus hominis;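 further: blocks dimerization of HCV core protein measured by TR-FRET between tagged core106 pairs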
# [9] = target: Peroxisome proliferator-activated receptor gamma/Nuclear receptor corepressor 2 (Homo sapiens, UniProt P37231+Q9Y618); type: functional
# [10] = target: T2, Voltage-gated N-type calcium channel alpha-1B subunit/Amyloid beta A4 precursor protein-binding family A member 1; type: protein assay; remark: listed apart in the source
# T2 sequence (Q00975 whole entry): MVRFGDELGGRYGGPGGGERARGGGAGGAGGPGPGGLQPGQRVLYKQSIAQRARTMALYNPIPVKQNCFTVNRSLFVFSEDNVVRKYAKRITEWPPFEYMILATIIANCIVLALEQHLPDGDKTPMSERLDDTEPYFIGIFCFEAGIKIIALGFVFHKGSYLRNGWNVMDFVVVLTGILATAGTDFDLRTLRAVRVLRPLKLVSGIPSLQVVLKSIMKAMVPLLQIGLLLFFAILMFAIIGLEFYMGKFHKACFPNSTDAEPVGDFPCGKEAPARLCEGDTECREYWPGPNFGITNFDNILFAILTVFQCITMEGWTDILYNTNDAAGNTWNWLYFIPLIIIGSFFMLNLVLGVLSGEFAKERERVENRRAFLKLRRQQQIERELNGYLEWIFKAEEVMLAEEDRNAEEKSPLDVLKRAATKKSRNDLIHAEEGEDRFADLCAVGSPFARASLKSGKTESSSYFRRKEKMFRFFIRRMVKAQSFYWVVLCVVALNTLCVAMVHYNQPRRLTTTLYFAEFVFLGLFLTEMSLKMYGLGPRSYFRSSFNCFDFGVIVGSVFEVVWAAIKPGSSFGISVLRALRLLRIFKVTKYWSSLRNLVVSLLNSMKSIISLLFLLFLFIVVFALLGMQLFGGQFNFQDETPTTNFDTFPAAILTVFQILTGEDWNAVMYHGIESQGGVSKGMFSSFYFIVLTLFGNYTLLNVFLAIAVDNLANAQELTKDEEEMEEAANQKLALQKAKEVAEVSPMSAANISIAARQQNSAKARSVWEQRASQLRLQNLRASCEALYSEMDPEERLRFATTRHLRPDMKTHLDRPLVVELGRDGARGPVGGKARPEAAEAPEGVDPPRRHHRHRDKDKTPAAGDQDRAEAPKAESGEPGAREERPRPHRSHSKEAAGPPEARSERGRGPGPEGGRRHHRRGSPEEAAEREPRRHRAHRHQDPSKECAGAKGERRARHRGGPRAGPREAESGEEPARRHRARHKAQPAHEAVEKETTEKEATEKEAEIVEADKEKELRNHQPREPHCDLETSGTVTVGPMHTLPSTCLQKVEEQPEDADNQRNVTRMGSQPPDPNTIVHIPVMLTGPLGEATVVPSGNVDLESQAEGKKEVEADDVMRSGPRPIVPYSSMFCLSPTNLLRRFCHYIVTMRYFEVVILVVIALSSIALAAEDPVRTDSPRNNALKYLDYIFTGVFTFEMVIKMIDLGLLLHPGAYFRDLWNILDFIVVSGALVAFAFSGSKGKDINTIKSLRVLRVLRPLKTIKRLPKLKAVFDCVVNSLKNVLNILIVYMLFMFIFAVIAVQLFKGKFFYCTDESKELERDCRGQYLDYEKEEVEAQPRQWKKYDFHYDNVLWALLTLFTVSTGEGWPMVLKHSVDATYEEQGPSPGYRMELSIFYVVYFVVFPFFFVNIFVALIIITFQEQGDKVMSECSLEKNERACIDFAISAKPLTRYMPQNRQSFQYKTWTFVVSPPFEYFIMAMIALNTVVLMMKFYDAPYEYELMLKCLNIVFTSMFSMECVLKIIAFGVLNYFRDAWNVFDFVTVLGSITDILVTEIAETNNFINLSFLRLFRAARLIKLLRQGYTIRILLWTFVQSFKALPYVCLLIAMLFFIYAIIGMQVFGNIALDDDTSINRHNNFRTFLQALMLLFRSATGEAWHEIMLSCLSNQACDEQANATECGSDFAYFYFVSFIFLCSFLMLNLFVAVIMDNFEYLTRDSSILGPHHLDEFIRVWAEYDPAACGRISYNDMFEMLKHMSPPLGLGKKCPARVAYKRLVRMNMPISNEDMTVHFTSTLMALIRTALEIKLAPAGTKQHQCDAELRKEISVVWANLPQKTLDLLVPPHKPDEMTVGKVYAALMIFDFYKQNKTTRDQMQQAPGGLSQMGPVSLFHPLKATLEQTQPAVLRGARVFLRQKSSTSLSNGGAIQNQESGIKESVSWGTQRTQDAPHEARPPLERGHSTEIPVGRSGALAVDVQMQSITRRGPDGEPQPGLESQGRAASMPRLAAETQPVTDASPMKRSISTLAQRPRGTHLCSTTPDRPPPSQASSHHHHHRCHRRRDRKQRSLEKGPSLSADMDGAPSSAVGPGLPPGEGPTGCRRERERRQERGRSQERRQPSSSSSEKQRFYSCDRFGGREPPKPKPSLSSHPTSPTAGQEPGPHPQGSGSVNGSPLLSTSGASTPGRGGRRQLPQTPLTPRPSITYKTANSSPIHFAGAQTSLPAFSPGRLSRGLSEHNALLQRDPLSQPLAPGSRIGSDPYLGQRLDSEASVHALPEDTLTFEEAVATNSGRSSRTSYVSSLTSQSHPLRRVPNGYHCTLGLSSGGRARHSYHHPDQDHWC
# T2 sequence (Q02410 whole entry): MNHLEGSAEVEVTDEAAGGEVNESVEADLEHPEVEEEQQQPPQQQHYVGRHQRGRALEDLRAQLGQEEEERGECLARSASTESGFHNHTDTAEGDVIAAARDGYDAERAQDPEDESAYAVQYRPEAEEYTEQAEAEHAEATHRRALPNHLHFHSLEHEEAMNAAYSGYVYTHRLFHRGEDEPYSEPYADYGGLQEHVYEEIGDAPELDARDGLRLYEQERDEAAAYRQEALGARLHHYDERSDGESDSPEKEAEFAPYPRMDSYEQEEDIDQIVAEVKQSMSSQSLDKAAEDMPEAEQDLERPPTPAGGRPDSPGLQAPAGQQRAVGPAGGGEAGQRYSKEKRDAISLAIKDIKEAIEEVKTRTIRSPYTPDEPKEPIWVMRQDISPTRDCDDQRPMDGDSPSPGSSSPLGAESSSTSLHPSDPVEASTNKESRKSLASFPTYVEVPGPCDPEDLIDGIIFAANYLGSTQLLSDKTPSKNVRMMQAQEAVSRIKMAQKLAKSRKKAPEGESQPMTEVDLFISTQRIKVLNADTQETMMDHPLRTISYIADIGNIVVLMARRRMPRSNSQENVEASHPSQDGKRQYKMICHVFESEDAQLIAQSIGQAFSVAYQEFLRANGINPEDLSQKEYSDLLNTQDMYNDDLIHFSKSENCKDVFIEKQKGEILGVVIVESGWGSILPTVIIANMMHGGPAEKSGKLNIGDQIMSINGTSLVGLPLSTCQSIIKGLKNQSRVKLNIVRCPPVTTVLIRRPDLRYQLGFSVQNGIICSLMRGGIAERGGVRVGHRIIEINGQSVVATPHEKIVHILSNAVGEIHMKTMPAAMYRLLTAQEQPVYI
# T1 sequence (Q9NZJ5 whole entry): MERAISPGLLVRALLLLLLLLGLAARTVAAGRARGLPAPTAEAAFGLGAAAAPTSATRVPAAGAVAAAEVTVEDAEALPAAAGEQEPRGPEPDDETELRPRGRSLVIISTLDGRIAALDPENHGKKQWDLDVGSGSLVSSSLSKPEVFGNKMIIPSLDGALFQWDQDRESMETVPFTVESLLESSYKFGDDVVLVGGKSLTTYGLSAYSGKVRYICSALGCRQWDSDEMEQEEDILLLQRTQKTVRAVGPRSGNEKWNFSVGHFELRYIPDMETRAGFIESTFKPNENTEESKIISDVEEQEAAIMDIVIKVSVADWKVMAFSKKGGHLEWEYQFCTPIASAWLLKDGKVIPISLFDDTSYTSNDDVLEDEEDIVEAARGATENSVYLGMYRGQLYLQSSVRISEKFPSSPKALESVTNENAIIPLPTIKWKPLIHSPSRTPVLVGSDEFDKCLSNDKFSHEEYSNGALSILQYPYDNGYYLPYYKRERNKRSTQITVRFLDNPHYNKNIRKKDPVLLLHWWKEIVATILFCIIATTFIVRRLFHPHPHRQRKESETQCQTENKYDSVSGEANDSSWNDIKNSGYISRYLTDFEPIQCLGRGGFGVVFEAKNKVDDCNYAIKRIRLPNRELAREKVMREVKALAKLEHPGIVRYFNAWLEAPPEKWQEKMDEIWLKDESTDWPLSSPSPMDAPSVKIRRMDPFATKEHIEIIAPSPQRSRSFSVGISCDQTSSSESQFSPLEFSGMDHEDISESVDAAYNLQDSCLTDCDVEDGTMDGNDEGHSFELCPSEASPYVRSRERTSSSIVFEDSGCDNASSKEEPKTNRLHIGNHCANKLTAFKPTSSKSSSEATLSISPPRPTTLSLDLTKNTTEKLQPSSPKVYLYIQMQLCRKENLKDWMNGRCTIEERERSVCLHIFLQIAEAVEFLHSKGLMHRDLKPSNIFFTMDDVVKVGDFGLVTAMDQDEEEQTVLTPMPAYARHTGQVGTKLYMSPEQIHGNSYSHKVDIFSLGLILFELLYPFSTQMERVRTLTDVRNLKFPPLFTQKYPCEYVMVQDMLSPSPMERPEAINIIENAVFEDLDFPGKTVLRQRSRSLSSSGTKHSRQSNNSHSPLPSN
# Photoreceptor-specific nuclear receptor, sequence (Q9Y5X4 whole entry): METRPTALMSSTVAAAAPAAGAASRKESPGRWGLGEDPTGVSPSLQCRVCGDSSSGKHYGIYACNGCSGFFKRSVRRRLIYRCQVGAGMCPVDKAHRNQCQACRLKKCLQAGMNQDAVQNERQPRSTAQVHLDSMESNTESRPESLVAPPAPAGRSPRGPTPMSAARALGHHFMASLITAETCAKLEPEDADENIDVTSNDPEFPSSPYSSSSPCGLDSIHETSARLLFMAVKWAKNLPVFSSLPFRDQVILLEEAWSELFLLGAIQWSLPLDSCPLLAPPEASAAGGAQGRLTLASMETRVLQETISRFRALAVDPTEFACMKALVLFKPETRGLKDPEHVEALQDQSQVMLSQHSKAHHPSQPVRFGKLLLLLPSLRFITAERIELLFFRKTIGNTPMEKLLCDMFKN
# Melanin-concentrating hormone receptor 1, sequence (Q99705 whole entry): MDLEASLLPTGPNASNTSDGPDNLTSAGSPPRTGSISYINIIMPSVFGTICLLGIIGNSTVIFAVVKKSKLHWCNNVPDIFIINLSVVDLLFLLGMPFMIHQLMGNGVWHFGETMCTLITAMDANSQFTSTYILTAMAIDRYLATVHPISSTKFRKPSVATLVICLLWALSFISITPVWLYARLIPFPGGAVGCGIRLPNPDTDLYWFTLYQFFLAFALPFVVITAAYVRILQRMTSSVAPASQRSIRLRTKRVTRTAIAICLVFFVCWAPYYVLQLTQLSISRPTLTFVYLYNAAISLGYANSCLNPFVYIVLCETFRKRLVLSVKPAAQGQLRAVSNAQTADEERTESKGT
compound,measurement,setting,value
COc1cc(/C=C(\C#N)C(=O)Nc2ccc(C(=O)O)cc2)ccc1OC(=O)c1cccc(F)c1,IC50,[1],12 µM (not active)
same,IC50,[2],5.86 µM (active)
Cc1c(O)n2c(nc1=O)sc1ccccc12,EC50,[3],> 55.7 µM (not active)
same,EC50,[4],> 55.7 µM (not active)
Cc1c(N2C(=O)c3ccc4c5c(ccc(c35)C2=O)CC4)c(=O)n(-c2ccccc2)n1C,IC50,[5],2.27 µM (active)
same,IC50,[6],15.7 µM (active)
same,IC50,[7],> 39.8 µM (not active)
same,IC50,[8],> 49.8 µM (not active)
same,IC50,[9],> 39.8 µM (not active)
same,IC50,[10],5.83 µM (active)
